Here are results for 11 molecules from PubChem BioAssay (NCI).

Structures are written as SMILES. “And” between values parts separate entries of the source, which are not always exact repeats. Equal entries are not always repeated.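 These data come from cells grown in 96-well plates and exposed to compound for 48 hours at five concentrations. Abbreviation: GI50, concentration required for 50% inhibition of growth. TGI: concentration producing complete growth inhibition.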 Some results are limits rather than exact numbers.

Test systems include SK-MEL-5 melanoma; SK-MEL-28 melanoma; OVCAR-4 ovarian; K-562 leukemia; RPMI-8226 leukemia; DU-145 prostate; M14 melanoma; RXF 393 renal; UO-31 renal; OVCAR-8 ovarian.
Assay in all cases: NCI anticancer screen, dose series, 48 h

With `CCCNC(=S)N/N=C(\C)c1ccccn1`, the GI50 was 0.213 µM in the assay on SK-MEL-5 melanoma; 1.98 µM with SK-MEL-28 melanoma; below 0.01 µM in the assay on OVCAR-4 ovarian; 0.0153 µM with K-562 leukemia; 0.0268 µM with RPMI-8226 leukemia; 1.1 µM with DU-145 prostate. The GI50 in the assay with M14 melanoma is 0.0681 µM; with RXF 393 renal it was 0.847 µM; in the assay with UO-31 renal, 0.293 µM; in the assay with OVCAR-8 ovarian, 0.0667 µM. The TGI in the assay on SK-MEL-5 melanoma was 2.55 µM; in the assay on SK-MEL-28 melanoma it was above 100 µM; with OVCAR-4 ovarian, 0.0441 µM; in the assay on K-562 leukemia, above 100 µM; in the assay with RPMI-8226 leukemia, above 100 µM; in the assay on DU-145 prostate, above 42.9 µM. The TGI in the assay on M14 melanoma is 3.65 µM; in the assay with RXF 393 renal, 6.55 µM; with UO-31 renal, above 82.8 µM; in the assay on OVCAR-8 ovarian, above 100 µM.

In the case of `CC[C@H](C)[C@H](NC(=O)[C@H]1CCCCN1C)C(=O)N(C)[C@H](CCc1nc(C(=O)N[C@@H](Cc2ccccc2)C[C@H](C)C(=O)OC)cs1)C(C)C`, the GI50 in the assay on SK-MEL-5 melanoma is 0.0745 µM; with SK-MEL-28 melanoma it was 2.06 µM; in the assay on OVCAR-4 ovarian, 1.36 µM; with K-562 leukemia it was 0.121 µM; in the assay with RPMI-8226 leukemia, 0.0929 µM; with DU-145 prostate, 0.351 µM. Further, the GI50 was 0.215 µM in the assay on M14 melanoma, 0.308 µM with RXF 393 renal, 1.78 µM in the assay with UO-31 renal and 0.717 µM in the assay on OVCAR-8 ovarian. In addition, the TGI is 1.02 µM in the assay with SK-MEL-5 melanoma; above 25 µM with SK-MEL-28 melanoma; above 25 µM with OVCAR-4 ovarian; above 25 µM in the assay with K-562 leukemia; 8.17 µM with RPMI-8226 leukemia; above 25 µM with DU-145 prostate. Also, the TGI is above 25 µM in the assay on RXF 393 renal, 13.7 µM with UO-31 renal and above 25 µM in the assay on OVCAR-8 ovarian.

For `O=C(O)C1C(C(=O)O)C(C(=O)O)C1C(=O)O` (stereo not drawn), the TGI in the assay with SK-MEL-5 melanoma, in the assay on SK-MEL-28 melanoma, in the assay with OVCAR-4 ovarian, in the assay on K-562 leukemia, in the assay with RPMI-8226 leukemia and with DU-145 prostate was above 100 µM each time. The TGI in the assay with M14 melanoma, with RXF 393 renal, with UO-31 renal and in the assay with OVCAR-8 ovarian was above 100 µM each time.

On to `Cc1cc(C2CCCCC2)n(O)c(=O)c1`, for which the GI50 in the assay with SK-MEL-5 melanoma is 1.49 µM; in the assay with SK-MEL-28 melanoma, 4.07 µM; in the assay on OVCAR-4 ovarian, 0.75 µM; in the assay on DU-145 prostate, 2.04 µM; in the assay with M14 melanoma it was 1.39 µM; in the assay with RXF 393 renal, 3.02 µM. For the same molecule, the GI50 in the assay with UO-31 renal was 0.552 µM; with OVCAR-8 ovarian it was 1.92 µM. The TGI with SK-MEL-5 melanoma was 7.38 µM and 38.3 µM; in the assay on SK-MEL-28 melanoma, above 100 µM; in the assay with OVCAR-4 ovarian it was above 100 µM; in the assay on K-562 leukemia, above 100 µM; in the assay with RPMI-8226 leukemia it was 46.8 µM; with DU-145 prostate it was above 100 µM. For the same molecule, the TGI is > 100 µM and 97.2 µM with RXF 393 renal; above 100 µM in the assay on UO-31 renal; above 100 µM in the assay with OVCAR-8 ovarian.

Turning to `Cc1[nH]c(N=Nc2ccccc2)nc1N=Nc1ccccc1`, the GI50 in the assay on SK-MEL-5 melanoma was 2.41 µM; in the assay on SK-MEL-28 melanoma it was 4.5 µM; with OVCAR-4 ovarian, 3.06 µM; in the assay with K-562 leukemia, 3.55 µM; in the assay on RPMI-8226 leukemia it was 1.17 µM; in the assay with DU-145 prostate, 3.17 µM. The GI50 with M14 melanoma was 2 µM; with RXF 393 renal, 0.552 µM; in the assay with UO-31 renal, 1.34 µM; in the assay on OVCAR-8 ovarian, 3.2 µM. For the same molecule, the TGI in the assay on SK-MEL-5 melanoma is 7.83 µM; with SK-MEL-28 melanoma, above 41 µM; in the assay on OVCAR-4 ovarian it was 55.4 µM; in the assay on K-562 leukemia it was above 100 µM; with RPMI-8226 leukemia, 8.38 µM; in the assay with DU-145 prostate, above 34.9 µM. Also, the TGI with M14 melanoma came to 4.49 µM; in the assay on RXF 393 renal, 3.43 µM; with UO-31 renal, 13 µM; in the assay on OVCAR-8 ovarian, 53.1 µM.

As for `COc1cc2c3c(n(CCCBr)c(=O)c2cc1OC)-c1ccc(NC(C)=O)cc1C3=O`, the GI50 is 2.45 µM in the assay with SK-MEL-5 melanoma; 40.5 µM in the assay with SK-MEL-28 melanoma; 32.3 µM in the assay with OVCAR-4 ovarian; 3.84 µM in the assay on K-562 leukemia; 5.28 µM in the assay with RPMI-8226 leukemia; 4.65 µM in the assay with DU-145 prostate. The GI50 in the assay on M14 melanoma is 4.33 µM; with RXF 393 renal it was 13.3 µM; in the assay on UO-31 renal it was 5.68 µM; in the assay on OVCAR-8 ovarian it was 18.7 µM. Besides, the TGI is 13.7 µM with SK-MEL-5 melanoma; above 100 µM in the assay on SK-MEL-28 melanoma; above 100 µM in the assay on OVCAR-4 ovarian; 28.3 µM with K-562 leukemia; 27.2 µM in the assay on RPMI-8226 leukemia; above 100 µM in the assay on DU-145 prostate. The TGI in the assay with M14 melanoma was 20.6 µM; in the assay on RXF 393 renal it was 38.2 µM; in the assay with UO-31 renal, 65 µM; in the assay on OVCAR-8 ovarian it was above 100 µM.

As to `COc1cccc(N=Cc2c3ccccc3c(=O)n3c2oc2ccccc23)c1`, the GI50 with SK-MEL-5 melanoma was 17.5 µM; with SK-MEL-28 melanoma, above 100 µM; in the assay on OVCAR-4 ovarian, above 100 µM; with K-562 leukemia, 2.09 µM; in the assay with RPMI-8226 leukemia, 6.54 µM; in the assay on DU-145 prostate, 21.8 µM. For the same molecule, the GI50 in the assay on M14 melanoma is 12.2 µM; in the assay with UO-31 renal it was 42.7 µM; in the assay with OVCAR-8 ovarian it was 7.82 µM. For the same molecule, the TGI with SK-MEL-5 melanoma is 37.1 µM; with SK-MEL-28 melanoma, above 100 µM; in the assay with OVCAR-4 ovarian, above 100 µM; in the assay with K-562 leukemia, 6.05 µM; in the assay with RPMI-8226 leukemia, 42.6 µM; with DU-145 prostate, above 100 µM. Also, the TGI was above 100 µM in the assay with M14 melanoma, 20.9 µM with RXF 393 renal, above 100 µM with UO-31 renal and 39 µM in the assay with OVCAR-8 ovarian.

For `CN1C(NC(=O)c2ccc(Cl)nc2)=NS(=O)(=O)c2cc(Cl)ccc21`, the GI50 in the assay with SK-MEL-5 melanoma, in the assay with SK-MEL-28 melanoma, with OVCAR-4 ovarian, in the assay on K-562 leukemia, in the assay with RPMI-8226 leukemia and in the assay on DU-145 prostate was above 100 µM in each case. Moreover, the GI50 with M14 melanoma, with RXF 393 renal, in the assay with UO-31 renal and in the assay with OVCAR-8 ovarian was above 100 µM in each case. Also, the TGI in the assay with SK-MEL-5 melanoma, with SK-MEL-28 melanoma, in the assay on OVCAR-4 ovarian, in the assay with K-562 leukemia, in the assay with RPMI-8226 leukemia and with DU-145 prostate was above 100 µM each time. Moreover, the TGI with M14 melanoma, in the assay with RXF 393 renal, in the assay on UO-31 renal and in the assay with OVCAR-8 ovarian was above 100 µM in each case.

`O=C(C[C@@H](C(=O)NCc1cccc(C(F)(F)F)c1)N1C(=O)[C@@H](N2C(=O)OC[C@@H]2c2ccccc2)[C@H]1/C=C/c1ccccc1)NC1CCN(Cc2ccccc2)CC1`: the GI50 with SK-MEL-5 melanoma was 3.47 µM; with SK-MEL-28 melanoma, 2.19 µM; with OVCAR-4 ovarian, 1.77 µM; with K-562 leukemia it was 1.77 µM; in the assay with RPMI-8226 leukemia, 2.22 µM; in the assay with DU-145 prostate, 7.72 µM. Further, the GI50 is 4.58 µM in the assay with M14 melanoma, 1.87 µM in the assay on RXF 393 renal, 13.5 µM in the assay on UO-31 renal and 3.08 µM in the assay with OVCAR-8 ovarian. Further, the TGI is 12.5 µM in the assay with SK-MEL-5 melanoma; 5.8 µM with SK-MEL-28 melanoma; 4.43 µM in the assay with OVCAR-4 ovarian; 4.17 µM in the assay with K-562 leukemia; 5.31 µM in the assay with RPMI-8226 leukemia; above 100 µM in the assay with DU-145 prostate. Further, the TGI in the assay on M14 melanoma was 20.4 µM; in the assay with RXF 393 renal it was 4.88 µM; with UO-31 renal, 55.3 µM.

Regarding `COc1ccc(-n2c(SCc3cc(OC)c(OC)c(OC)c3)nc3ccc(C)cc3c2=O)cc1`, the GI50 with SK-MEL-5 melanoma was 3.58 µM; in the assay on SK-MEL-28 melanoma it was 25.9 µM; in the assay on OVCAR-4 ovarian it was 9.9 µM; in the assay with K-562 leukemia, 3.89 µM; with RPMI-8226 leukemia it was 2.55 µM; with DU-145 prostate, above 100 µM. Besides, the GI50 was 4.26 µM in the assay with M14 melanoma, 70.4 µM with RXF 393 renal, 5.56 µM in the assay on UO-31 renal and above 100 µM in the assay with OVCAR-8 ovarian. For the same molecule, the TGI is above 100 µM in the assay on SK-MEL-5 melanoma; above 100 µM in the assay on SK-MEL-28 melanoma; above 100 µM with OVCAR-4 ovarian; above 100 µM in the assay on K-562 leukemia; 50.9 µM in the assay with RPMI-8226 leukemia; above 100 µM in the assay on DU-145 prostate. In addition, the TGI in the assay with M14 melanoma, with RXF 393 renal, with UO-31 renal and with OVCAR-8 ovarian was above 100 µM each time.

For the molecule `COc1ccc(OC(=O)O[C@H]2[C@H](O[C@H]3[C@@H](O)COC(O[C@H]4C[C@H]5[C@@H]6CC=C7C[C@@H](O)CC[C@]7(C)[C@H]6CC[C@]5(C)[C@H]4[C@H](C)C(=O)CCC(C)C)[C@@H]3OC(C)=O)OC[C@@H](O)[C@@H]2O)cc1` (stereo partly drawn), the GI50 in the assay on SK-MEL-5 melanoma was 0.0347 µM; in the assay on SK-MEL-28 melanoma, 0.0185 µM; with OVCAR-4 ovarian, 1.12 µM; with K-562 leukemia it was below 0.01 µM; in the assay on RPMI-8226 leukemia it was below 0.01 µM; with DU-145 prostate, 3.53 µM. For the same molecule, the GI50 in the assay with M14 melanoma was 0.04 µM; with RXF 393 renal, below 0.01 µM; with UO-31 renal, 0.0874 µM; in the assay with OVCAR-8 ovarian it was 12.7 µM. Further, the TGI in the assay with SK-MEL-5 melanoma stood at 0.176 µM; in the assay with SK-MEL-28 melanoma, 0.155 µM; with OVCAR-4 ovarian it was 20.3 µM; in the assay with K-562 leukemia it was 10.6 µM; in the assay with RPMI-8226 leukemia, 0.0321 µM; in the assay with DU-145 prostate it was 22.7 µM. Moreover, the TGI stood at 0.262 µM in the assay with M14 melanoma, 0.995 µM in the assay with UO-31 renal and 50.6 µM in the assay on OVCAR-8 ovarian.
